The nature of this data set: Cytotoxicity tests. It counts as cell-based.

Consider `CCCCCCCC/C=C\CCCCCCCC(=O)OCc1ccc(N(C)C)cc1` [DMAO, 4-N,N-dimethylaminobenzyloleate], for which the cytotoxicity entry was “non-toxic”.
